Experimental data taken from ChEMBL document CHEMBL1201862, “PubChem BioAssay data set” (2004).
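96-well plates; 48 h exposure; 5 concentrations. Endpoints by linear interpolation between flanking doses. Not reached: highest tested concentration assigned. The concentration for 50% growth inhibition is given as GI50.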 Activity calls are given as the source filed them. Cut-off read from the data, not from the text of the source: active = GI50 up to about 1.1 µM and inactive = higher.

Columns and labels:
Test in all cases: NCI anticancer screen, dose series, 48 h
KM-20L2 = tested on: KM-20L2
HOP-18 = tested on: HOP-18
XF498 = tested on: XF498
RXF 631 = tested on: RXF 631
DMS-114 = tested on: DMS-114
DLD-1 = tested on: DLD-1
M19-MEL = tested on: M19-MEL
SNB-78 = tested on: SNB-78
LXFL 529 = tested on: LXFL 529

Measured: GI50

O=c1ncc(F)cn1C1OC(CO)C(O)C1O (stereo not given)
inactive: KM-20L2 > 32.9 µM | HOP-18 > 31.5 µM | XF498 > 100 µM | RXF 631 41.6 µM | DMS-114 > 21.2 µM | DLD-1 > 35.8 µM | M19-MEL > 24.6 µM | SNB-78 > 29.7 µM

CN1CCN(C)C12C=CC=CC21CC1
inactive: KM-20L2 > 100 µM | HOP-18 > 100 µM | XF498 > 100 µM | RXF 631 > 100 µM | DMS-114 > 100 µM | DLD-1 > 100 µM | M19-MEL > 100 µM | SNB-78 > 100 µM

Cc1c2ccncc2c(C)c2c1[nH]c1ccc(Oc3ccccc3)cc12
inactive: KM-20L2 1.87 µM | HOP-18 6.04 µM | XF498 1.45 µM | RXF 631 2.57 µM | DMS-114 2.3 µM | DLD-1 2.37 µM | M19-MEL 2.43 µM | LXFL 529 2.04 µM | SNB-78 2.28 µM
